Measured values reported in paper PMC7139405, “Real-Time 3D Imaging and Inhibition Analysis of Various Amyloid Aggregations Using Quantum Dots” (International Journal of Molecular Sciences, 2020).

Columns and labels:
[1] = target: T1, α-synuclein (Homo sapiens, UniProt P37840); test: aggregation inhibition of purified protein, quantum-dot fluorescence imaging (MSHTS); format: biochemical
T1 construct: gene SNCA

[2] = target: T2, Amyloid β (Aβ42) (Homo sapiens, UniProt P05067); test: aggregation inhibition of isolated peptide, quantum-dot fluorescence imaging (MSHTS); format: biochemical
T2 construct: gene APP
T2 sequence (P05067 672-713): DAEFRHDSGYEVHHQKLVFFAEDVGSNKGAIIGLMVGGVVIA
Excerpt: aggregation inhibition of isolated peptide, quantum-dot fluorescence imaging (MSHTS) on Amyloid β (Aβ42) | RA inhibited the aggregation of Aβ and α-synuclein proteins in vitro in a dose-dependent manner

With `O=C(/C=C/c1ccc(O)c(O)c1)O[C@H](Cc1ccc(O)c(O)c1)C(=O)O` [RA, rosmarinic acid] the EC50 [1] was 2.1 µM and the EC50 [2] was 20.6 µM.
